# Results: ChEMBL document CHEMBL1146858 (Bioorg Med Chem Lett, 2006)
# Key:
# [1] = biological target: Coagulation factor VII/tissue factor (Homo sapiens) (UniProt P08709+P13726); test: Anticoagulant activity in plasma by PT assay; assay type: functional, cell-free
# [2] = biological target: Coagulation factor X (Homo sapiens, UniProt P00742); test: Binding affinity to human F10a
# [3] = biological target: Prothrombin (Homo sapiens, UniProt P00734); test: Binding affinity to human F2a
# [4] = Oral bioavailability in orally dosed dog; assay type: ADME, organism-based, Canis lupus familiaris; conditions: in vivo
# [5] = Clearance in dog; assay type: ADME, organism-based, Canis lupus familiaris; conditions: in vivo
# [6] = Volume of distribution in dog; assay type: ADME, organism-based, Canis lupus familiaris; conditions: in vivo, read-out: Vdss
# [7] = Half life in orally dosed dog; assay type: ADME, organism-based, Canis lupus familiaris; conditions: in vivo, po
# [8] = Protein binding in plasma by equilibrium dialysis assay; assay type: ADME, cell-free; conditions: read-out: PPB (converted)
# [9] = organism: Oryctolagus cuniculus; test: cells
# [10] = Apparent permeability in Caco-2 cells; assay type: ADME, cell-based; conditions: human
# [11] = biological target: Vitamin K-dependent protein C (Homo sapiens, UniProt P04070); test: Binding affinity to human APC
# Vitamin K-dependent protein C, sequence (P04070 43-197 limits assumed): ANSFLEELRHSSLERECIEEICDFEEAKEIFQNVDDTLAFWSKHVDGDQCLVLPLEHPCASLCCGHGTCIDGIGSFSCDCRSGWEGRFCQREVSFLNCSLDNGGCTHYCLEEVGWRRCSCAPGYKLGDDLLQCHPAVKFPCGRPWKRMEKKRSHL
# Vitamin K-dependent protein C, sequence (P04070 212-461 limits assumed): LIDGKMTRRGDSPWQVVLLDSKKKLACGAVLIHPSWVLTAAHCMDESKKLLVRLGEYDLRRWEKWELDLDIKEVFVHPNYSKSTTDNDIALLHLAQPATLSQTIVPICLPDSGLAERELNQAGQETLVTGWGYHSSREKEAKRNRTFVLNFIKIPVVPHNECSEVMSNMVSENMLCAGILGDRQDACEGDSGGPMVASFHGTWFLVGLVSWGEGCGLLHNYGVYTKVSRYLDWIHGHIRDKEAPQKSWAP
# [12] = organism: Oryctolagus cuniculus
# [13] = biological target: Chymotrypsinogen B (Homo sapiens, UniProt P17538); test: Binding affinity to human chymotrypsin
# Chymotrypsinogen B, sequence (P17538 34-164 limits assumed, other chains not shown): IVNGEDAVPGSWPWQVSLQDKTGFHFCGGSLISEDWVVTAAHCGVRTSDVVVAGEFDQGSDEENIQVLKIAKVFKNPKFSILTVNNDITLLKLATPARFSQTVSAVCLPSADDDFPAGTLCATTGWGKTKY
# Chymotrypsinogen B, sequence (P17538 167-263 limits assumed, other chains not shown): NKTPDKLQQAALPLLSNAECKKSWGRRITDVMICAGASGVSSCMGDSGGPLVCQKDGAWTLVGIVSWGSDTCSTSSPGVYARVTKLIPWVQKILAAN
# [14] = biological target: Plasminogen (Homo sapiens, UniProt P00747); test: Binding affinity to human plasmin
# Plasminogen, sequence (P00747 97-580 limits assumed): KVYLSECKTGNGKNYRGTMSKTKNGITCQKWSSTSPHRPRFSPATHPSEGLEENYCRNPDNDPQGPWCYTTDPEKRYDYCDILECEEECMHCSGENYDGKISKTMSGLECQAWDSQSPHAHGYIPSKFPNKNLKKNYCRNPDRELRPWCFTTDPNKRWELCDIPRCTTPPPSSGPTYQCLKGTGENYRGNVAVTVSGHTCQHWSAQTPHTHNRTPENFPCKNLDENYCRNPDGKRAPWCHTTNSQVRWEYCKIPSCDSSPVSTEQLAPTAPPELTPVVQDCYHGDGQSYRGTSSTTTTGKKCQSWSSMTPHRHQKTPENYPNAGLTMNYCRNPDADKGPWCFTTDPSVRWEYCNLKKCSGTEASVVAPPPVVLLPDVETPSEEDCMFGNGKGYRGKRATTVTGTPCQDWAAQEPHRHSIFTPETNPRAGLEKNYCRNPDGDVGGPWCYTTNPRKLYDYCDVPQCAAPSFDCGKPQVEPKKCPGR
# Plasminogen, sequence (P00747 581-810 limits assumed): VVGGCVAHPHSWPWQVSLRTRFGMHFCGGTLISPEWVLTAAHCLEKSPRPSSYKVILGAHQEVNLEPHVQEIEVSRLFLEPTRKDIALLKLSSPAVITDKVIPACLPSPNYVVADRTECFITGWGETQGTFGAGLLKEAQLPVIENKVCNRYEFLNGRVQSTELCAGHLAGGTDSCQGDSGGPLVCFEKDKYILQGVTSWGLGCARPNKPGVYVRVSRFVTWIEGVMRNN
# [15] = biological target: Trypsin (Homo sapiens, UniProt P07477+P07478+P35030); test: Binding affinity to human trypsin; assay type: protein assay
# [16] = biological target: T1, Coagulation factor VII (Homo sapiens, UniProt P08709); test: Binding affinity to human f7a
# T1 sequence (P08709 whole entry): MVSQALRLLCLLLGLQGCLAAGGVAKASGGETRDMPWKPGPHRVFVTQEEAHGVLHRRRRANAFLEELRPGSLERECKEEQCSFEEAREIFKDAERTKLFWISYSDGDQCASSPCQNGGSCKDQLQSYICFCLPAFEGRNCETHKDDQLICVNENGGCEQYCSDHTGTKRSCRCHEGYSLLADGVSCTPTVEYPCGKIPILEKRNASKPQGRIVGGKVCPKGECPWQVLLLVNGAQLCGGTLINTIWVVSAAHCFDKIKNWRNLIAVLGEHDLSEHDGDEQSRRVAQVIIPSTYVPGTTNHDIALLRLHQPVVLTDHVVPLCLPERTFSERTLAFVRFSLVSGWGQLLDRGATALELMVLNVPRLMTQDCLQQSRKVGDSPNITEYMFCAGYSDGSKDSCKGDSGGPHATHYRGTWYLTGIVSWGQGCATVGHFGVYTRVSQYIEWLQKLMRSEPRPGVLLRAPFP
# [17] = biological target: Coagulation factor IX (Homo sapiens, UniProt P00740); test: Binding affinity to human f9a
# Coagulation factor IX, sequence (P00740 47-191 limits assumed): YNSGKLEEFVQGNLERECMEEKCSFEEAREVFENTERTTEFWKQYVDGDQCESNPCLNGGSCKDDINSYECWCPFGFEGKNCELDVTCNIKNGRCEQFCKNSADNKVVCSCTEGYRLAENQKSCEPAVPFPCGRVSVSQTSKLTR
# Coagulation factor IX, sequence (P00740 227-461 limits assumed): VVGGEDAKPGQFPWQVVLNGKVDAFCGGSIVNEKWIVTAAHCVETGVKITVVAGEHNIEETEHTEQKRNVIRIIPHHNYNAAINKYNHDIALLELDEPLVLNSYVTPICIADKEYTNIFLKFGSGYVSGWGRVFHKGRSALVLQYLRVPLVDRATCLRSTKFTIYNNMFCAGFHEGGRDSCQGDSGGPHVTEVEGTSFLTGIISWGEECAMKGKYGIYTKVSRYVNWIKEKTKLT
# [18] = biological target: Plasma kallikrein (Homo sapiens, UniProt P03952); test: Binding affinity to human plasma kallikrein; assay type: cell-free
# Plasma kallikrein, sequence (P03952 20-390 limits assumed): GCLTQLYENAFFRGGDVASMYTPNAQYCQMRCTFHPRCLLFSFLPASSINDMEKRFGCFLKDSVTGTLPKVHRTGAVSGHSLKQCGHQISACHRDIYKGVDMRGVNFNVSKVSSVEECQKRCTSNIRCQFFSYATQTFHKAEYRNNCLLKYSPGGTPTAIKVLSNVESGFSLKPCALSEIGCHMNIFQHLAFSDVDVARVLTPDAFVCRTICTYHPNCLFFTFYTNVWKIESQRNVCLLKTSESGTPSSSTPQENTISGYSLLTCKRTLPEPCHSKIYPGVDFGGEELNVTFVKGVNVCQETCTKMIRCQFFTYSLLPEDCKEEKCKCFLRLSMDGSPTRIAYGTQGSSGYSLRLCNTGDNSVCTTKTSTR
# Plasma kallikrein, sequence (P03952 391-638 limits assumed): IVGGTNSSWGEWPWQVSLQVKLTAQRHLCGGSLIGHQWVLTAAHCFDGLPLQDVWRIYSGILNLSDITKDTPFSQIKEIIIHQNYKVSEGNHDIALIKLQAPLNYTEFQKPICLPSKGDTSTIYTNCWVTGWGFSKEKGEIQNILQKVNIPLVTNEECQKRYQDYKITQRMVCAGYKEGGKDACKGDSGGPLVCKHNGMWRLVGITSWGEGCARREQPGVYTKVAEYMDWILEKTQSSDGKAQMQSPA
# [19] = biological target: Tissue-type plasminogen activator (Homo sapiens, UniProt P00750); test: Binding affinity to human tPA
# Tissue-type plasminogen activator, sequence (P00750 whole entry): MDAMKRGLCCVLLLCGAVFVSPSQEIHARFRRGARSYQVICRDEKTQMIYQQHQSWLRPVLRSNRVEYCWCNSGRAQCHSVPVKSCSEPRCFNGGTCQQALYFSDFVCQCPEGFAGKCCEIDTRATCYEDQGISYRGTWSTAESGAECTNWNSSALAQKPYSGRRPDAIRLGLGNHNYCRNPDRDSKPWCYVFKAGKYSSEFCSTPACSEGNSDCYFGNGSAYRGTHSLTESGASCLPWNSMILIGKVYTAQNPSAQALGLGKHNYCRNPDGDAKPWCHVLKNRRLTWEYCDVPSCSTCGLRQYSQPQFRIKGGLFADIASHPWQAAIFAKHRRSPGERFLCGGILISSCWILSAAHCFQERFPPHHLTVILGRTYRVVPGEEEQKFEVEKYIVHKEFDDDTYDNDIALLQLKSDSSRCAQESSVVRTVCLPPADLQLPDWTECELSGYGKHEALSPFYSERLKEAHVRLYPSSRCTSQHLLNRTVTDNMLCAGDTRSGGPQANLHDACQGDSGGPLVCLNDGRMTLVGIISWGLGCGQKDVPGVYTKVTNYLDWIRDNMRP
# Coagulation factor X, sequence (P00742 41-179 limits assumed): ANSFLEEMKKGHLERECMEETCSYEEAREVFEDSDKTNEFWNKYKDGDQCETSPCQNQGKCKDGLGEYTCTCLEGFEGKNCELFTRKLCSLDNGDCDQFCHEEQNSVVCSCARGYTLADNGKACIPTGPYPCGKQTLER
# Coagulation factor X, sequence (P00742 235-488 limits assumed): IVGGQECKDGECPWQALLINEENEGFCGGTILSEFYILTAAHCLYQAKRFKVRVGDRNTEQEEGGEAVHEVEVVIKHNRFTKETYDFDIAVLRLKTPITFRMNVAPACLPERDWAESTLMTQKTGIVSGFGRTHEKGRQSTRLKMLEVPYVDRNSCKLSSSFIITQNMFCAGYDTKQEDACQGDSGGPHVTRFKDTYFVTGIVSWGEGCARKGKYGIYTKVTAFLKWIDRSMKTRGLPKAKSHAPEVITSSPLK
Compound,2PT [1] [µM],Ki [2] [nM],Ki [3] [nM],bioavailability [4] [%],clearance [5] [mL/min/kg],Vd [6] [L/kg],half-life [7] [h],also measured
CN(C)Cc1ccccc1-c1ccc(N2CCCc3c(C(F)(F)F)nn(-c4ccc5onc(N)c5c4)c3C2=O)c(F)c1,8.5,0.85,–,–,–,–,–,–
CN(C)Cc1ccccc1-c1ccc(N2CCCc3c(C(F)(F)F)nn(-c4ccc5onc(N)c5c4)c3C2=O)cc1,4,0.81,–,–,–,–,–,–
CN(C)Cc1ccccc1-c1ccc(N2CC=Cc3c(C(F)(F)F)nn(-c4ccc5onc(N)c5c4)c3C2=O)c(F)c1,15,0.6,–,–,–,–,–,–
Nc1noc2ccc(-n3nc(C(F)(F)F)c4c3C(=O)N(c3ccc(-c5ccccc5CN5CCNCC5)cc3)CC4)cc12,14,0.64,280,–,–,–,–,–
CCN(C)Cc1ccccc1-c1ccc(N2CCc3c(C(F)(F)F)nn(-c4ccc5onc(N)c5c4)c3C2=O)cc1,3.2,< 0.1,57,–,–,–,–,–
Nc1noc2ccc(-n3nc(C(F)(F)F)c4c3C(=O)N(c3ccc(-c5ccccc5CN5CC[C@@H](O)C5)cc3F)CC4)cc12,8.4,0.16,72,81,5.83,2.8,5.9,fraction unbound [8]: < 0.02; IC50 [9]: 600 nM; Papp [10]: 13 ×10⁻⁶ cm/s
Nc1noc2ccc(-n3nc(C(F)(F)F)c4c3C(=O)N(c3ccc(-c5ccccc5CN5CC[C@H](O)C5)cc3)CC4)cc12,4.8,–,59,52,4.5,1.12,4.5,–
CN(C)Cc1ccccc1-c1ccc(N2CCc3c(C(F)(F)F)nn(-c4ccc5onc(N)c5c4)c3C2=O)c(F)c1,5.6,0.13,75,83,17.5,8.8,6.4,fraction unbound [8]: < 0.02; IC50 [9]: 600 nM; Papp [10]: 8.9 ×10⁻⁶ cm/s
CN(C)Cc1nccn1-c1ccc(NC(=O)c2cc(C(F)(F)F)nn2-c2ccc3onc(N)c3c2)c(F)c1 [RAZAXABAN],2.1,–,–,–,–,–,–,Ki [11]: > 2300 nM
Nc1noc2ccc(-n3nc(C(F)(F)F)c4c3C(=O)N(c3ccc(-c5ccccc5CN5CCC(O)CC5)cc3)CC4)cc12,4.9,0.22,71,102,3.5,1.4,6.4,IC50 [9]: 510 nM; Papp [10]: 0.4 ×10⁻⁶ cm/s
CNCc1ccccc1-c1ccc(N2CCc3c(C(F)(F)F)nn(-c4ccc5onc(N)c5c4)c3C2=O)cc1,3.7,0.34,150,67,27.7,9.7,7.4,–
CN(C)Cc1ccccc1-c1ccc(N2CNc3c(C(F)(F)F)nn(-c4ccc5onc(N)c5c4)c3C2=O)cc1,1.4,0.25,–,–,–,–,–,–
Nc1noc2ccc(-n3nc(C(F)(F)F)c4c3C(=O)N(c3ccc(-c5ccccc5CN5CCCC5)cc3)CC4)cc12,3.2,0.15,58,37,16.8,5,5.3,–
Cc1nn(-c2ccc3onc(N)c3c2)c2c1CCN(c1ccc(-c3ccccc3CN(C)C)cc1)C2=O,2.1,0.55,380,13,53.3,6.4,1.6,Papp [10]: 6.8 ×10⁻⁶ cm/s
Cc1nn(-c2ccc3onc(N)c3c2)c2c1CCN(c1ccc(-c3ccccc3CN3CC[C@@H](O)C3)cc1F)C2=O,4.9,0.34,250,62,15.7,1.1,1.1,–
CN(C)Cc1ccccc1-c1ccc(N2CC=Cc3c(C(F)(F)F)nn(-c4ccc5onc(N)c5c4)c3C2=O)cc1,6.9,0.6,–,–,–,–,–,–
CCN(CC)Cc1ccccc1-c1ccc(N2CCc3c(C(F)(F)F)nn(-c4ccc5onc(N)c5c4)c3C2=O)cc1,3,0.11,97,–,–,–,–,–
Nc1noc2ccc(-n3nc(C(F)(F)F)c4c3C(=O)N(c3ccc(-c5ccccc5CN5CCOCC5)cc3)CC4)cc12,41,0.35,130,–,–,–,–,–
Cc1nn(-c2ccc3onc(N)c3c2)c2c1CCN(c1ccc(-c3ccccc3CN3CC[C@@H](O)C3)cc1)C2=O,2.8,0.27,130,44,7,0.75,1.7,ID50 [12]: 0.6 ug/hr.kg; Papp [10]: 6.2 ×10⁻⁶ cm/s
CN1CCN(Cc2ccccc2-c2ccc(N3CCc4c(C(F)(F)F)nn(-c5ccc6onc(N)c6c5)c4C3=O)cc2)CC1,31,0.71,230,–,–,–,–,–
Nc1noc2ccc(-n3nc(C(F)(F)F)c4c3C(=O)N(c3ccc(-c5ccccc5CN5CCCC5)cc3F)CC4)cc12,6.1,0.24,–,85,13.2,4.8,4.9,fraction unbound [8]: < 0.02; IC50 [9]: 1000 nM
Cc1nn(-c2ccc3onc(N)c3c2)c2c1CCN(c1ccc(-c3ccccc3CN3CCCC3)cc1)C2=O,1.4,0.31,120,10,31.7,3.3,1.7,–
CN(C)Cc1ccccc1-c1ccc(NC(=O)c2cc(C(F)(F)F)nn2-c2ccc3onc(N)c3c2)c(F)c1,4.2,–,–,–,–,–,–,–
CN(C)Cc1ccccc1-c1ccc(N2CCc3c(C(F)(F)F)nn(-c4ccc5onc(N)c5c4)c3C2=O)cc1,2.7,0.04,43,50,16.3,4.5,3.8,IC50 [9]: 223 nM; Papp [10]: 4.7 ×10⁻⁶ cm/s
Nc1noc2ccc(-n3nc(C(F)(F)F)c4c3C(=O)N(c3ccc(-c5ccccc5CN5CC[C@@H](O)C5)cc3)CC4)cc12,3.6,–,35,82,–,–,–,Ki [11]: > 2800 nM; Ki [13]: > 2800 nM; Ki [14]: > 2800 nM; Ki [15]: > 2800 nM; Ki [16]: > 2800 nM; Ki [17]: > 2800 nM; Ki [18]: > 2800 nM; fraction unbound [8]: 0.026; Ki [19]: > 2800 nM; Papp [10]: 1.7 ×10⁻⁶ cm/s
